Read-outs that look alike come from different tables or passages of the source.

What all share (assay): microbe, parasite or virus in culture
Format in all cases: cell-based

For test [1], the system named is HCV 3a RLuc cells (NS5A chimeric genotype 1b Con1 replicon with consensus genotype 3a NS5A gene). To be noted: Hepatitis C virus. The procedure, abridged: (§1)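 Replicon cells stably carrying the listed RLuc-encoding dicistronic replicons were seeded and treated with DMSO serial dilutions of compound (10 mM stocks) diluted into culture medium. After 72 h, cells were lysed and Renilla luciferase activity measured. EC50 was derived by non-linear regression.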

The test system of test [2] is HCV 2a JFH-1 Rluc cells (dicistronic genotype 2a JFH-1 replicon, RLuc reporter). Conditions: Hepatitis C virus, genotype 2a JFH-1 replicon, read-out: 2a JFH. The procedure, abridged: as §1
The test system of test [3] is HCV 1a RLuc cells (dicistronic genotype 1a H77 replicon, RLuc reporter). Conditions: Hepatitis C virus, read-out: 1a. In short, it runs like this:
as §1

In test [4] the test system is HCV 1b RLuc cells (dicistronic genotype 1b Con1 replicon, RLuc reporter). To be noted: Hepatitis C virus, read-out: 1b (nM). The procedure, abridged:
as §1

Test [5] has as its system HCV 4a Rluc cells (NS5A chimeric genotype 1b Con1 replicon with genotype 4a NS5A gene). To be noted: Hepatitis C virus, read-out: 4a. The procedure, abridged: as §1
Setting [6] is: read-out: 3a, Table 2, genotype 3a NS5A chimeric replicon.
The mark [7] stands for this setting: 72 h, Table 2, genotype 1a H77 replicon, 72 hours.
The mark [8] stands for this setting: read-out: 3a, genotype 3a NS5A chimeric 1b Con1 replicon.
[9] abbreviates: genotype 1a H77 replicon, RLuc reporter.
[10] abbreviates: read-out: 3a, genotype 3a replicon.

Regarding `COC(=O)N[C@H](C(=O)N1CCC[C@H]1c1ncc(-c2ccc3c(c2)CCc2cc(-c4cnc([C@@H]5[C@H]6CC[C@H](C6)N5C(=O)[C@@H](NC(=O)OC)C5CCOCC5)[nH]4)ccc2-3)[nH]1)C1CCOCC1` [Example 79], the EC50 was 0.001 to 0.99 nM in test [1] (setting [6]); 0.001 to 0.999 nM in test [2] (72 h, Table 2, 72 hours); 0.001 to 0.999 nM in test [3] (setting [7]); 0.231 nM in test [4] (72 h); 0.001 to 0.99 nM in test [5].
Take `COC(=O)N[C@H](C(=O)N1[C@@H]2CC[C@@H](C2)[C@H]1c1ncc(-c2ccc3cc(-c4ccc5c(ccc6nc([C@@H]7CCCN7C(=O)[C@H](NC(=O)OC)c7ccccc7)[nH]c65)c4)ccc3c2)[nH]1)C1CCOCC1` [Example 101]: the EC50 in test [1] (setting [6]) was 0.001 to 0.99 nM; in test [2] (72 h, Table 2, 72 hours) it was 0.001 to 0.999 nM; in test [3] (setting [7]) it was 0.001 to 0.999 nM; in test [4] (72 h), 0.011 nM; in test [5], 0.001 to 0.99 nM.
Regarding `COC(=O)NC(C(=O)N1CCC[C@H]1c1ncc(-c2ccc3cc(-c4ccc(-c5cnc([C@@H]6CC(C)(Br)CN6C(=O)[C@@H](NC(=O)OC)C6CCOCC6)[nH]5)cc4)ccc3c2)[nH]1)c1ccccc1` (stereo partly shown) [Example 205], the EC50 in test [1] (setting [8]) was 1 to 4.99 nM; in test [2] (RLuc reporter), 0.001 to 0.999 nM; in test [3] (setting [9]), 0.001 to 0.999 nM; in test [4], 0.016 nM; in test [5], 0.001 to 0.99 nM.
With `COC(=O)N[C@H](C(=O)N1CCC[C@H]1c1ncc(-c2ccc3cc(-c4ccc(-c5cnc([C@@H]6[C@H]7CC[C@H](C7)N6C(=O)[C@H](NC(=O)OC)c6ccccc6)[nH]5)cc4)ccc3c2)[nH]1)C(C)C` [Example 48], the EC50 in test [1] (setting [6]) is 1 to 4.99 nM; in test [2] (72 h, Table 2, 72 hours), 1 to 44 nM; in test [3] (setting [7]) it was 0.001 to 0.999 nM; in test [4] (72 h), 0.007 nM; in test [5], 0.001 to 0.99 nM.
As for `COC(=O)N[C@H](C(=O)N1CCC[C@H]1c1ncc(-c2ccc3cc(-c4ccc5c(ccc6nc([C@@H]7[C@H]8CC[C@H](C8)N7C(=O)[C@H](NC(=O)OC)c7ccccc7)[nH]c65)c4)ccc3c2)[nH]1)C1CCOCC1` [Example 327], the EC50 is 0.001 to 0.99 nM in test [1] (setting [10]); 0.001 to 0.999 nM in test [2]; 0.001 to 0.999 nM in test [3] (genotype 1a replicon); 0.011 nM in test [4]; 0.001 to 0.99 nM in test [5].
For `COC(=O)N[C@H](C(=O)N1CCC[C@H]1c1ncc(-c2cc3c4c(c2)CCc2cc(-c5cnc([C@@H]6CCCN6C(=O)[C@@H](NC(=O)OC)[C@H](C)OC)[nH]5)cc(c2-4)CC3)[nH]1)C(C)C` [Example 25], the EC50 in test [1] (read-out: 3a, Table 1, genotype 3a NS5A chimeric replicon) is 0.001 to 0.99 nM; in test [2] (72 h, Table 1, 72 hours), 0.001 to 0.999 nM; in test [3] (72 h, Table 1, genotype 1a H77 replicon, 72 hours), 0.001 to 0.999 nM; in test [4] (72 h), 0.021 nM; in test [5], 0.001 to 0.99 nM.
As to `COC(=O)NC(C(=O)N1CCC[C@H]1c1ncc(-c2ccc(-c3ccc4c(ccc5nc([C@@H]6[C@H]7CC[C@H](C7)N6C(=O)[C@@H](NC(=O)OC)C6CCOCC6)[nH]c54)c3)cc2)[nH]1)C(C)C` (stereo partly shown) [Example 67], the EC50 was 1 to 4.99 nM in test [1] (setting [6]); 0.001 to 0.999 nM in test [2] (72 h, Table 2, 72 hours); 0.001 to 0.999 nM in test [3] (setting [7]); 0.044 nM in test [4] (72 h); 0.001 to 0.99 nM in test [5].
Take `COC(=O)N[C@@H](C(=O)N1CCC[C@H]1c1ncc(-c2ccc3cc(-c4ccc5c(c4)CCc4nc([C@@H]6CCCN6C(=O)[C@@H](NC(=O)OC(C)(C)C)C6CCOCC6)[nH]c4-5)ccc3c2)[nH]1)c1ccccc1` [Example 269]: the EC50 in test [1] (setting [8]) was above 5 nM; in test [2] (RLuc reporter), 1 to 44 nM; in test [3] (setting [9]), above 44 nM; in test [4], 0.076 nM; in test [5], 0.001 to 0.99 nM.
Taken in the same sequence, the figures for `COC(=O)N[C@H](C(=O)N1C[C@@H](O)C[C@H]1c1ncc(-c2ccc3cc(-c4ccc(-c5cnc([C@@H]6CCCN6C(=O)[C@H](NC(=O)OC)c6ccccc6)[nH]5)cc4)ccc3c2)[nH]1)C(C)C` [Example 223] were 1 to 4.99 nM, 0.001 to 0.999 nM, 1 to 44 nM, 0.022 nM and 0.001 to 0.99 nM.
Turning to `COC(=O)N[C@H](C(=O)N1CCC[C@H]1c1ncc(-c2ccc(-c3ccc4c(c3)C(F)(F)c3cc(-c5cnc([C@@H]6CCCN6C(=O)[C@@H](NC(=O)OC)C(C)(C)C)[nH]5)ccc3-4)cc2)[nH]1)C1CCOCC1` [Example 201], the EC50 was above 5 nM in test [1] (setting [8]); 1 to 44 nM in test [2] (RLuc reporter); 0.001 to 0.999 nM in test [3] (setting [9]); 0.018 nM in test [4]; 0.001 to 0.99 nM in test [5].
Taken in the same sequence, the figures for `COC(=O)N[C@H](C(=O)N1CCC[C@H]1c1nc2c([nH]1)-c1ccc(-c3ccc4cc(-c5cnc([C@@H]6CCCN6C(=O)[C@H](NC(=O)CC6CCOCC6)c6ccccc6)[nH]5)ccc4c3)cc1CC2)C(C)C` [Example 273] were 0.001 to 0.99 nM, 0.001 to 0.999 nM, 0.001 to 0.999 nM, 0.042 nM and 0.001 to 0.99 nM.
As to `COC(=O)N[C@H](C(=O)N1CCC[C@H]1c1nc2ccc(-c3ccc4c(c3)CCc3cc(-c5cnc([C@@H]6CCCN6C(=O)C(c6ccccc6)N(C)C)[nH]5)ccc3-4)cc2[nH]1)C(C)C` (stereo partly shown) [Example 181], the EC50 is 0.001 to 0.99 nM in test [1] (setting [8]); 0.001 to 0.999 nM in test [2] (RLuc reporter); 0.001 to 0.999 nM in test [3] (setting [9]); 0.01 nM in test [4]; 0.001 to 0.99 nM in test [5].
With `COC(=O)N[C@H](C(=O)N1CCC[C@H]1c1ncc(-c2ccc3c(c2)CCc2cc(-c4cnc([C@@H]5[C@H]6CC[C@H](C6)N5C(=O)[C@@H](NC(=O)OC)[C@@H](C)OC)[nH]4)ccc2-3)[nH]1)C(C)C` [Example 93], the EC50 in test [1] (setting [6]) was 0.001 to 0.99 nM; in test [2] (72 h, Table 2, 72 hours), 0.001 to 0.999 nM; in test [3] (setting [7]), 0.001 to 0.999 nM; in test [4] (72 h), 0.023 nM; in test [5], 0.001 to 0.99 nM.
For the compound `COC(=O)N[C@H](C(=O)N1CCCC1c1ncc(-c2cc3c4c(c2)OCc2cc(-c5cnc([C@@H]6CCCN6C(=O)[C@@H](NC(=O)OC)C6CCC6)[nH]5)cc(c2-4)OC3)[nH]1)C1CCC1` (stereo in doubt) [Example 376], the EC50 was 0.001 to 0.99 nM in test [1] (setting [10]); 0.001 to 0.999 nM in test [2]; 0.001 to 0.999 nM in test [3] (genotype 1a replicon); 0.02 nM in test [4]; 0.001 to 0.99 nM in test [5].
In the case of `COC(=O)N[C@H](C(=O)N1CCC[C@H]1c1ncc(-c2ccc(-c3ccc4c(c3)c3ccccc3c3nc([C@@H]5CCCN5C(=O)[C@@H](NC(=O)OC)C(C)C)[nH]c43)cc2)[nH]1)C(C)C` [Example 299], the EC50 in test [1] (setting [10]) was above 5 nM; in test [2], 1 to 44 nM; in test [3] (genotype 1a replicon) it was 1 to 44 nM; in test [4] it was 0.017 nM; in test [5] it was 0.001 to 0.99 nM.
Turning to `COC(=O)N[C@H](C(=O)N1CCC[C@H]1c1nc(Cl)c(-c2ccc(-c3ccc(-c4[nH]c([C@@H]5CCCN5C(=O)[C@@H](NC(=O)OC)C5CCOCC5)nc4Cl)cc3)cc2)[nH]1)C(C)C` [Example 360], the EC50 was 0.001 to 0.99 nM in test [1] (setting [10]); 0.001 to 0.999 nM in test [2]; 0.001 to 0.999 nM in test [3] (genotype 1a replicon); 0.053 nM in test [4]; 0.001 to 0.99 nM in test [5].
For `COC(=O)N[C@H](C(=O)N1CC2(C[C@H]1c1ncc(-c3ccc(-c4ccc5c(ccc6nc([C@@H]7CCCN7C(=O)[C@H](NC(=O)OC)c7ccccc7)[nH]c65)c4)cc3)[nH]1)OCCO2)C(C)C` [Example 354], the EC50 in test [1] (setting [10]) was 0.001 to 0.99 nM; in test [2], 0.001 to 0.999 nM; in test [3] (genotype 1a replicon) it was 0.001 to 0.999 nM; in test [4], 0.031 nM; in test [5], 0.001 to 0.99 nM.
As for `COC(=O)N[C@H](C(=O)N1CC2(C[C@H]1c1ncc(-c3ccc4cc(-c5ccc(-c6cnc([C@@H]7CCCN7C(=O)[C@H](NC(=O)OC)c7ccccc7)[nH]6)cc5)ccc4c3)[nH]1)OCCO2)C(C)C` [Example 43], the EC50 in test [1] (setting [6]) was 1 to 4.99 nM; in test [2] (72 h, Table 2, 72 hours), 0.001 to 0.999 nM; in test [3] (setting [7]), 0.001 to 0.999 nM; in test [4] (72 h), 0.009 nM; in test [5], 0.001 to 0.99 nM.
As for `COC(=O)N[C@H](C(=O)N1[C@@H]2CC[C@@H](C2)[C@H]1c1ncc(-c2ccc3cc(-c4ccc5c(ccc6nc([C@@H]7CCCN7C(=O)[C@H](NC(=O)OC)c7ccccc7)[nH]c65)c4)ccc3c2)[nH]1)[C@@H](C)OC` [Example 102], the EC50 is 0.001 to 0.99 nM in test [1] (setting [6]); 0.001 to 0.999 nM in test [2] (72 h, Table 2, 72 hours); 0.001 to 0.999 nM in test [3] (setting [7]); 0.009 nM in test [4] (72 h); 0.001 to 0.99 nM in test [5].
Take `COC(=O)NC(C(=O)N1CCC[C@H]1C1=NC(c2ccc3cc(-c4ccc5c(ccc6nc([C@@H]7CCCN7C(=O)[C@@H](NC(=O)OC)C7CCOCC7)[nH]c65)c4)ccc3c2)=CC1)c1cccnc1` (stereo partly shown) [Example 239]: the EC50 in test [1] (setting [8]) was 0.001 to 0.99 nM; in test [2] (RLuc reporter) it was 0.001 to 0.999 nM; in test [3] (setting [9]), 0.001 to 0.999 nM; in test [4], 0.078 nM; in test [5], 0.001 to 0.99 nM.

The record behind these values is patent US10344019B2 (priority 2010, dated 2019).
